From patent publication US20250084056A1, “SUBSTITUTED OXOISOINDOLINYL PIPERIDINE-2,6-DIONE COMPOUNDS” (BRISTOL-MYERS SQUIBB COMPANY, priority 2023, published 2025)

Experiments:
[1] = molecular target: T1, Cyclin E1 (Homo sapiens, UniProt P24864+Q96SW2); assay: Cyclin E1 Cellular Degradation Assay (MSD); assay type: cell-based; design: endogenous in cells; host or cells: OVCAR3
Procedure, shortened: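 Cyclin E1 remaining after 24 h compound exposure of OVCAR3 cells was quantified in lysates by electrochemiluminescent MSD sandwich assay. DC50 (50% response concentration) and Dmax (maximum response) were calculated, with 110% response set by a reference compound at […].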

[2] = molecular target: T1, Cyclin E1; assay: Cellular degradation of Cyclin E1 (Western blot) in HCC1569 cells; assay type: cell-based; design: endogenous in cells; host or cells: HCC1569 (ATCC CRL-2330); settings: HCC1569 cancer cells, 24 h, FIG. 1A
Description: The assay measured the ability of the compound to degrade Cyclin E1, inhibit RB phosphorylation, and to determine the selectivity against degradation of GSPT1 in cancer cells in vitro. HCC1569 cells (ATCC #CRL-2330) were cultured in RPMI media (Gibco, catalog A104910) supplemented with 10% FBS (Gibco, catalog 10091148). Cells were plated in tissue culture-treated 6 well plates at a density of 0.5 million cells per well in 2 mL media. The cells were then incubated overnight in a cell culture incubator (5% CO2 and 37° C.) and allowed to attach to the plate. The following day cells were dosed with compounds at the desired concentrations. Compounds were first resuspended in DMSO to make 10 mM stock, and 20 μM stock was prepared by diluting 10 mM stock in culture media. […] Total protein concentration was measured using a BCA assay kit (Thermo Scientific, cat #P123227). […] Protein was then detected by incubating blots with 2 mL of HRP detection reagent (Thermo scientific cat #A38556) for one minute at room temperature. Excess reagent was drained and gently removed on a Kimwipe and the chemiluminescence signal was detected using Fluorchem imaging system. […] Relative quantification of western blots was performed using ImageJ software, data was then normalized to loading control (β-Actin) first and then to the DMSO-treated sample. […]

T1 sequence (P24864 whole entry): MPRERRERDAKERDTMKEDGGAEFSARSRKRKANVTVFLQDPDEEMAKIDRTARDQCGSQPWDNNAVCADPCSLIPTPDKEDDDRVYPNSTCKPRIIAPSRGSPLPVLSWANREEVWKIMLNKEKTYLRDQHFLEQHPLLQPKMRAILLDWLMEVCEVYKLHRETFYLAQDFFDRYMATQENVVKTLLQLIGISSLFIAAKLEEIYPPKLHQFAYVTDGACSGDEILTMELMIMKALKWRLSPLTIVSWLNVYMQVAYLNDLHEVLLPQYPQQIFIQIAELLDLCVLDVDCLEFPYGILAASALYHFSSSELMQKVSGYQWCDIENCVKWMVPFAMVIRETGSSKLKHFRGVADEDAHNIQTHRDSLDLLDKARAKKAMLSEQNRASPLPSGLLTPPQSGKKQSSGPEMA
T1 sequence (Q96SW2 whole entry): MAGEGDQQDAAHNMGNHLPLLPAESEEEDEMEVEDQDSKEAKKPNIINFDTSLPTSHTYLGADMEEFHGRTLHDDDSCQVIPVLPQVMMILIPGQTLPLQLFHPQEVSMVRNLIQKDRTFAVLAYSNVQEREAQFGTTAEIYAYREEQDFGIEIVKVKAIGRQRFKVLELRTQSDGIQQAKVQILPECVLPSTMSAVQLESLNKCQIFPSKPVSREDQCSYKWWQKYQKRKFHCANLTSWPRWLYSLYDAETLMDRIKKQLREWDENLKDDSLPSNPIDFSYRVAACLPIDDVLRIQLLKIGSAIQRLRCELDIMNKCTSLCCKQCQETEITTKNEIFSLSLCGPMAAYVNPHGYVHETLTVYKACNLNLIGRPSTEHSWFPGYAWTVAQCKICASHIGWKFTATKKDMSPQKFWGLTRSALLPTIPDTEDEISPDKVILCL
T1 sequence (Q16531 whole entry partner): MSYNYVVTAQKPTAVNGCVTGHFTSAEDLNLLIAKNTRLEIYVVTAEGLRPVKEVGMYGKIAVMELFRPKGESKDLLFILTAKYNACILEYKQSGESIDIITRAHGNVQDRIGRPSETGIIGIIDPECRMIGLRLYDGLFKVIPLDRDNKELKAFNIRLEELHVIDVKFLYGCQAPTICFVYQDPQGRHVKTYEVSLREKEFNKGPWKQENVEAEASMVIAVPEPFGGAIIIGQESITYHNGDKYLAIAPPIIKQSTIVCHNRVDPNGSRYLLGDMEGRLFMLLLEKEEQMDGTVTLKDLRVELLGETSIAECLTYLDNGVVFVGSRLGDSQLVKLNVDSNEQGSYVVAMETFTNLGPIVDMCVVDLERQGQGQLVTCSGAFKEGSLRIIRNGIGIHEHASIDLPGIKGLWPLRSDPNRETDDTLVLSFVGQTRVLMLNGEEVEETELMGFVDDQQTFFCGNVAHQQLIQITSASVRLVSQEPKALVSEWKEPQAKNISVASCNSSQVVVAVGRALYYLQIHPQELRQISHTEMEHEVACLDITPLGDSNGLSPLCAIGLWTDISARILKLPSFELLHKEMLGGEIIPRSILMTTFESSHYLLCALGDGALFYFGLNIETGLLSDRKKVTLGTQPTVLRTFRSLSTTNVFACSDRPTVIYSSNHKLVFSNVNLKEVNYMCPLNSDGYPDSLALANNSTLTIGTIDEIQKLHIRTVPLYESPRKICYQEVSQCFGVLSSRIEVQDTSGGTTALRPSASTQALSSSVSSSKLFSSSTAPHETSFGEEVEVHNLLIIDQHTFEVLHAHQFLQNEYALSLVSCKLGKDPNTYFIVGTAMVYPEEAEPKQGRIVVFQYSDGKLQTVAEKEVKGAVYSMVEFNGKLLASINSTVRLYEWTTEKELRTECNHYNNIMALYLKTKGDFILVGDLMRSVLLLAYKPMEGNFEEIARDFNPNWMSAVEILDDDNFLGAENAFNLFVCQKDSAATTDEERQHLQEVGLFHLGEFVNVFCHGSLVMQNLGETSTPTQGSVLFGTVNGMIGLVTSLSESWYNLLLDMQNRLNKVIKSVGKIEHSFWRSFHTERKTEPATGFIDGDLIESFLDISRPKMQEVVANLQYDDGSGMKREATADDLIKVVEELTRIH

DC50 ([1]; Cyclin E1 cellular degradation): 159 nM
Dmax ([1]; Cyclin E1 cellular degradation, maximum degradation): 107%
Ratio of GSPT1 DC50/Cyclin E1 DC50 ([1]; selectivity for degradation of Cyclin E1 over GSPT1): >88
SMILES: COc1c(COC(=O)Nc2ccc(Oc3ccc(F)c(F)c3)cc2)ccc2c1C(=O)N([C@H]1CCC(=O)NC1=O)C2 (single isomer, unassigned) [Example 35, {2-[(3 S)-2,6-dioxopiperidin-3-yl]-4-methoxy-3-oxo-2,3-dihydro-1H-isoindol-5-yl}methyl N-[4-(3,4-difluorophenoxy)phenyl]carbamate]
degradation of Cyclin E1 protein [2]: induced degradation of Cyclin E1 protein in a dose dependent manner
